We go through one molecule from ChEMBL document CHEMBL3045746, “Efficacy of Lawsonia inermis leaves extract and its phenolic compounds against olive knot and crown gall diseases” (2013).

One may read the MIC as the lowest concentration found to suppress growth.

The test system of the assay is Agrobacterium tumefaciens. Nature of the assay: Antibacterial activity against Agrobacterium tumefaciens str. B6 assessed as growth inhibition after 48 hr by INT staining. In kind it is functional. The conditions noted are these: str. B6, 48 h.

In brackets after ≈: the same amount, converted by molar mass.

Consider `CC(=O)c1c(O)cc(O)c(O)c1O[C@@H]1O[C@H](CO)[C@@H](O)[C@H](O)[C@H]1O` [LALIOSIDE], for which the MIC was found to be 30 µg/mL (≈ 86.6 µM).
